The numbers were not newly measured in patent US20200039732A1, “DEVICES FOR DISPENSING A HYDROFLUOROOLEFIN VAPOCOOLANT COMPOSITION AS AN AEROSOL” (GEBAUER COMPANY, priority 2016, published 2020), which cites them from elsewhere.

For the data set the following is noted: for Liquid Viscosity / Surface Tension: at 20° C.

The structures appear in SMILES notation. Like-named read-outs stand apart in the source and are kept apart here.

In the case of `CCCl` [Ethyl Chloride, chloroethane], the “Liquid Viscosity” value was 0.279 cP and the “Surface Tension” value is 19.5 dyne/cm. Besides, the Pvap (25° C.) is 0.135 MPa. Besides, the Pvap (80° C.) is recorded as 0.745 MPa.

`FC(F)(F)/C=C/Cl` [HCFO-1233zd, trans-1-chloro-3,3,3-trifluoropropene]: the “Liquid Viscosity” value was 0.319 cP and the “Surface Tension” value is 14.039 dyne/cm. For the setting “25° C.”, the Pvap is 0.108 MPa. Where the note is “80° C.”, the Pvap is given as 0.650 MPa.

Take `FCC(F)(F)F` [HFC-134a, 1,1,1,2-tetrafluoroethane]: the “Liquid Viscosity” value was 0.202 cP and the “Surface Tension” value is on record as 8.69 dyne/cm. For the same compound, for the setting “25° C.”, the Pvap is 0.665 MPa. The Pvap (80° C.) is recorded as 2.63 MPa.

In the case of `FC(F)CC(F)(F)F` [HFC-245fa, 1,1,1,3,3-pentafluoropropane], the “Liquid Viscosity” value is on record as 0.402 cP and the “Surface Tension” value is given as 13.6 dyne/cm. The Pvap (25° C.) is 0.124 MPa. Also, the Pvap (80° C.) is listed as 0.789 MPa.

Turning to `F/C=C/C(F)(F)F` [HFO-1234ze, trans-1,3,3,3-tetrafluoroprop-1-ene], the “Liquid Viscosity” value is on record as 0.489 cP and the “Surface Tension” value is reported as 13.3 dyne/cm. For the same compound, the Pvap (25° C.) is reported as 0.484 MPa. The Pvap (80° C.) is given as 2.01 MPa.

For the compound `CC(C)C` [Iso-Butane, isobutane], the “Liquid Viscosity” value was 0.156 cP and the “Surface Tension” value is 10.3 dyne/cm. Moreover, under “25° C.”, the Pvap is 0.319 MPa. Besides, the Pvap (80° C.) is reported as 1.5 MPa.
